In US12440496B2, “Natriuretic peptide receptor a agonists useful for the treatment of cardiometabolic diseases, kidney disease and diabetes” (Merck Sharp & Dohme LLC, priority 2019, dated 2025) one finds EC50 data, which are given here for twelve molecules.

The experiment concerns the target T1, hNPRA (Homo sapiens, UniProt P16066).
T1 construct: expressed in transfected cells
T1 sequence (P16066 33-1061): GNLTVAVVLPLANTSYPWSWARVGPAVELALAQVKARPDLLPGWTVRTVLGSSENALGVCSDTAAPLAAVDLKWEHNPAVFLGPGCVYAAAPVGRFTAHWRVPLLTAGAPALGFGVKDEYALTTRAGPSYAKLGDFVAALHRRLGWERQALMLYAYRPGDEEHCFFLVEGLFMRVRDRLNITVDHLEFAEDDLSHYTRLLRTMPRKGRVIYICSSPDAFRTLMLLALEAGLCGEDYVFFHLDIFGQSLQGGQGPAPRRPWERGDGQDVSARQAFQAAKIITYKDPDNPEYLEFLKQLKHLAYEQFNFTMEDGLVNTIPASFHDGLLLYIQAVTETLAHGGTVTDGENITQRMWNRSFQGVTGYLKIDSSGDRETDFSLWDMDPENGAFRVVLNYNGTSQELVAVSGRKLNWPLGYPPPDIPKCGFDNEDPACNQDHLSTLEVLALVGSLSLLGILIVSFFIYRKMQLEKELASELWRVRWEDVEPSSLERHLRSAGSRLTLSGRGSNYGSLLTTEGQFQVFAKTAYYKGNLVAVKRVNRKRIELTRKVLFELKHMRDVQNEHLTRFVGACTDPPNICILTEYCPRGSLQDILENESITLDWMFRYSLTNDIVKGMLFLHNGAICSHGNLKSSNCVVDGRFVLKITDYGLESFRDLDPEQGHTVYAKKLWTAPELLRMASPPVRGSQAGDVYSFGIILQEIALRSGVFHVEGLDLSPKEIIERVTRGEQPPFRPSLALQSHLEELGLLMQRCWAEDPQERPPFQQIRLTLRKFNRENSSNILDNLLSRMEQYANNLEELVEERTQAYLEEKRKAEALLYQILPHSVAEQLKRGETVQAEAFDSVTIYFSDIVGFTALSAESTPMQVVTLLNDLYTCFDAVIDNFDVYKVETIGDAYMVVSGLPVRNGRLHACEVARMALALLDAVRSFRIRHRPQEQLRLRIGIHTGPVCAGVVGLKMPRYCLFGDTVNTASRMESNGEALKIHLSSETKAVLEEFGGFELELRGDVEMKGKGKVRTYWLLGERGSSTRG
Briefly: NPRA Functional Cell Assay (cGMP HTRF, NPRA HEK JumpIn stable cells). The experiment is classed as cell-based. As to conditions: cGMP production, 1 hour at 37° C., 10-point dose response. An excerpt: NPRA Functional Cell Assay
Assay Buffer components HEPES and Opti-MEM® I Reduced-Serum with Glutamine (no phenol red) were from Gibco/Invitrogen (Thermo Fisher Scientific, Waltham, MA USA). 3-Isobutyl-1-methylxanthine (IBMX) and 4-(3-Butoxy-4-methoxybenzyl) imidazolidin-2-one (RO20) were obtained from Sigma-Aldrich (St. Louis, MO, USA). DPBS (Dulbecco's phosphate-buffered saline) without Ca2+ and Mg2+ was purchased from GE Healthcare Bio-Sciences (Pittsburgh, PA, USA). 384 well white Optiplates were from Perkin Elmer (Atlantic Highlands, NJ, USA). Human ANP (Atrial Natriuretic Peptide) (1-28) was purchased from Sigma-Aldrich (Catalog #A1663) and rat ANP (1-28) from Bachem (Torrance, CA, USA) (Catalog #H2100). Human-BNP (Human-Brain Natriuretic Peptide) (1-32 AA) was purchased from American Peptide Company (Sunnyvale, CA, USA) (product No. 14-1-90). cGMP kits were purchased from Cisbio. The assay ready frozen (ARF) Human/rat/dog NPRA HEK JumpIn Stable frozen cells (low passage number 5-11) were prepared in-house.
Test compounds were titrated in DMSO in a 10-point dose response in a separate step followed by a 100-fold dilution into the reaction. Positive response for each assay was determined using 10 nM rat-ANP peptide (rat cells) or 50 nM h-ANP peptide (human and dog cells).
Cells were thawed, washed with DPBS and resuspended in assay buffer (Opti-MEM+Glutamine, phenol red free media, 10 mM HEPES, 100 uM IBMX and 100 uM RO20) that was warmed to 37° C. Cells were then transferred to microplates via a Microplate Combi dispenser at a density of 1500, 400 and 1200 cells/well for human, rat and dog cells respectively, followed by acoustic transfer (Echo) of compound.
Compounds and cells were incubated at 37° C. with 5% CO2 for 1 hour, after which the cells were lysed and cGMP was captured using a CisBio cGMP HTRF assay kit. The TRF signal was measured with an Envision plate reader (emission set to 615 and 665 nm) after 1 hour incubation at ambient temperature. The TRF signal was converted to [cGMP] through the use of a cGMP calibration curve on each microplate. EC50's were generated from the resulting dose response curves by use of a 4 parameter logistic algorithm.
Assay Buffer components HEPES and Opti-MEM® I Reduced-Serum with Glutamine (no phenol red) were from Gibco/Invitrogen. 3-Isobutyl-1-methylxanthine (IBMX) and 4-(3-Butoxy-4-methoxybenzyl) imidazolidin-2-one (RO20) were obtained from Sigma. DPBS (Dulbecco's phosphate-buffered saline) without Ca2+ and Mg2+ was purchased from GE Healthcare Bio-Sciences (Pittsburgh, PA, USA). 384 well white Optiplates were from Perkin Elmer (Atlantic Highlands, NJ, USA). Human ANP (1-28) was purchased from Sigma (A1663) and rat ANP (1-28) from Bachem (H2100). Human-BNP (1-32 AA) was purchased from American Peptide Company (Sunnyvale, CA, USA) (product No. 14-1-90). cGMP kits were purchased from Cisbio (Bedford, MA, USA). The assay ready frozen (ARF) Human/rat/dog NPRA HEK JumpIn Stable frozen cells (low passage number 5-11) were prepared in-house.
Compounds and cells were incubated at 37° C. with 5% CO2 for 1 hour, after which the cells were lysed and cGMP was captured using a CisBio cGMP HTRF assay kit. The TRF signal was measured with an Envision® plate reader (Perkin Elmer) (emission set to 615 and 665 nm) after 1 hour incubation at ambient temperature. The TRF signal was converted to [cGMP] through the use of a cGMP calibration curve on each microplate. EC50's were generated from the resulting dose response curves by use of a 4 parameter logistic algorithm.
hNPRA EC50 (nM) were determined for the compounds of Example 1 through Example 273 and are reported in the Experimental section of this application.
For orientation: In TR-FRET formats the signal depends on donor and acceptor labels being close together.
The molecule `CC(C)(C)[C@H]1CCc2nc3sc(C(=O)N[C@H](CCN4CCC(F)CC4)c4cccc(NS(C)(=O)=O)c4)cc3cc2C1` (racemic) [Example 14, ammonium; methylsulfonyl-[3-[rac-(1R)-3-(4-fluoro-1-piperidyl)-1-[[rac-(6S)-6-tert-butyl-5,6,7,8-tetrahydrothieno[2,3-b]quinoline-2-carbonyl]amino]propyl]phenyl] azanide] had an EC50 of 0.834 µM.

`CC(C)(C)[C@H]1CCc2nc3sc(C(=O)N[C@H](CCNC4(CO)CCC4)c4cccc(NS(C)(=O)=O)c4)cc3cc2C1` (racemic) [Example 15, ammonium; methylsulfonyl-1-[3-[rac-(1R)-3-[[1-(hydroxymethyl)cyclobutyl]amino]-1-[[rac-(6S)-6-tert-butyl-5,6,7,8-tetrahydrothieno[2,3-b]quinoline-2-carbonyl]amino]propyl]phenyl] azanide] had an EC50 of 0.942 µM.

As to `CC1(O)CN(CC[C@@H](NC(=O)c2cc3cc4c(nc3s2)CC[C@H](C(C)(C)C)C4)c2cccc(NS(C)(=O)=O)c2)C1` (racemic) [Example 16, ammonium; methylsulfonyl-[3-[rac-(1R)-3-(3-hydroxy-3-methyl-azetidin-1-yl)-1-[[rac-(6S)-6-tert-butyl-5,6,7,8-tetrahydrothieno[2,3-b]quinoline-2-carbonyl]amino]propyl]phenyl] azanide], the concentration giving a half-maximal response (EC50) is 1.12 µM.

In the case of `CC(C)(C)[C@H]1CCc2nc3sc(C(=O)N[C@H](CCN4CCC(n5ccnc5)CC4)c4cccc(NS(C)(=O)=O)c4)cc3cc2C1` (racemic) [Example 17, ammonium; methylsulfonyl-[3-[rac-(1R)-3-(4-imidazol-1-y1-1-piperidy1)-1-[[rac-(6S)-6-tert-butyl-5,6,7,8-tetrahydrothieno[2,3-b]quinoline-2-carbonyl]amino]propyl]phenyl]azanide], the EC50 was 1.26 µM. The EC50 values of the last two molecules are within 1.5-fold of each other.

`CC(C)(C)[C@H]1CCc2nc3sc(C(=O)N[C@H](CCN4CCCC(c5cccnc5)C4)c4cccc(NS(C)(=O)=O)c4)cc3cc2C1` (mixture of isomers) [Example 18, ammonium; methylsulfonyl-[3-[rac-(1R)-3-[3-(3-pyridyl)-1-piperidyl]-1-[rac-(6S)-6-tert-butyl-5,6,7,8-tetrahydrothieno[2,3-b]quinoline-2-carbonyl]amino]propyl]phenyl]azanide] came in with a concentration for a half-maximal effect (EC50) of 1.28 µM.

`CC(C)(C)[C@H]1CCc2nc3sc(C(=O)N[C@H](CCN4CCCC5(CCNC5=O)C4)c4cccc(NS(C)(=O)=O)c4)cc3cc2C1` (mixture of isomers) [Example 19, ammonium; methylsulfonyl-[3-[rac-(1R)-3-(1-oxo-2,9-diazaspiro[4.5]decan-9-y1)-1-[[rac-(6S)-6-tert-butyl-5,6,7,8-tetrahydrothieno[2,3-b]quinoline-2-carbonyl]amino]propyl]phenyl]azanide] showed a 50% effective concentration (EC50) of 1.58 µM. This EC50 and that of the molecule before are within 1.5-fold of each other.

The molecule `CC(C)(C)[C@H]1CCc2nc3sc(C(=O)N[C@H](CCN4CCC4)c4cccc(NS(C)(=O)=O)c4)cc3cc2C1` (racemic) [Example 20, ammonium; methylsulfonyl-[3-[rac-(1R)-3-(azetidin-1-yl)-1-[[rac-(6S)-6-tert-butyl-5,6,7,8-tetrahydrothieno[2,3-b]quinoline-2-carbonyl]amino]propyl]phenyl]azanide] registered a concentration giving a half-maximal response (EC50) of 1.65 µM.

`CC(C)(C)[C@H]1CCc2nc3sc(C(=O)N[C@H](CCNC4COC4)c4cccc(NS(C)(=O)=O)c4)cc3cc2C1` (racemic) [Example 21, ammonium; methylsulfonyl-[3-[rac-(1R)-3-(oxetan-3-ylamino)-1-[[rac-(6S)-6-tert-butyl-5,6,7,8-tetrahydrothieno[2,3-b]quinoline-2-carbonyl]amino]propyl]phenyl]azanide] gave a 50% effective concentration (EC50) of 1.77 µM.

Molecule `CC(C)(C)[C@H]1CCc2nc3sc(C(=O)N[C@H](CCN4CC(c5ccccn5)C4)c4cccc(NS(C)(=O)=O)c4)cc3cc2C1` (racemic) [Example 22, ammonium; methylsulfonyl-[3-[rac-(1R)-3-[3-(2-pyridyl)azetidin-1-y1]-1-[[rac-(6S)-6-tert-butyl-5,6,7,8-tetrahydrothieno[2,3-b]quinoline-2-carbonyl]amino]propyl]phenyl] azanide] showed an EC50 of 1.79 µM.

In turn, `CC(C)(C)[C@H]1CCc2nc3sc(C(=O)N[C@H](CCN4CCC(c5ccccn5)CC4)c4cccc(NS(C)(=O)=O)c4)cc3cc2C1` (racemic) [Example 23, ammonium;methylsulfonyl-[3-[rac-(1R)-3-[4-(2-pyridyl)-1-piperidyl]-1-[[rac-(6S)-6-tert-butyl-5,6,7,8-tetrahydrothieno[2,3-b]quinoline-2carbonyl]amino]propyl]phenyl]azanide] gave an EC50 of 1.79 µM.

`CC(C)(C)[C@H]1CCc2nc3sc(C(=O)N[C@H](CCN[C@H]4CCCC(F)(F)[C@@H]4O)c4cccc(NS(C)(=O)=O)c4)cc3cc2C1` (racemic) [Example 24, ammonium; methylsulfony 1-[3-[rac-(1R)-1-[[rac-(6S)-6-tert-buty1-5,6,7,8-tetrahydrothieno[2,3-b]quinoline-2-carbonyl]amino]-3-[[rac-(1S,2R)-3,3-difluoro-2-hydroxy-cyclohexyl]amino]propyl]phenyl]azanide] yielded a half-maximal effective concentration (EC50) of 1.97 µM.

Molecule `CN(C)CC[C@@H](NC(=O)c1cc2cc3c(nc2s1)CC[C@H](C(C)(C)C)C3)c1ccc(-c2ccc(=O)[nH]c2)cc1` (racemic) [Example 25, dimethyl-[rac-(3R)-3-[4-(6-oxo-1H-pyridin-3-yl)phenyl]-3-[{rac-(6S)-6-tert-butyl-5,6,7,8-tetrahydrothieno[2,3-b]quinoline-2-carbonyl]amino]propyl] ammonium;formate] gave a concentration for a half-maximal effect (EC50) of 0.218 µM.

In general, EC50 refers to the concentration needed to bring the measured effect to its halfway point. A high value points to a less potent agent.
